Paper PMC6271041, “Synthesis and Biological Evaluation of Novel 2-Arylalkylthio-5-iodine-6-substituted-benzyl-pyrimidine-4(3H)-ones as Potent HIV-1 Non-Nucleoside Reverse Transcriptase Inhibitors” (Molecules, 2014)

What was measured:
HIV-1 RT = molecular target: T1, HIV-1 RT (Human immunodeficiency virus type 1 group M subtype B, UniProt P04585); assay: Inhibitory activity against HIV-1 RT (biotin-dUTP incorporation, colorimetric); format: biochemical; conditions: for IC50: mean of three separate experiments, variation less than 15%
T1 construct: The biotin-dUTP was incorporated by reverse transcriptase (Sigma, St. Louis, MO, USA); purchased Sigma
Experimental: Oligo(dT) (TaKaRa Co., Otsu, Japan) was immobilized via its 5'-terminal phosphate to Covalink-NH microtiter plates (NUNC Co., Roskilde, Denmark). The biotin-dUTP was incorporated by reverse transcriptase (Sigma, St. Louis, MO, USA). Briefly, a serial concentration of inhibitor was added to the mixture, which contained 50 mmol/L Tris-HCl (pH 8.3), 3 mmol/L MgCl2, 75 mmol/L KCl, 5 mmol/L DTT, 0.13 mg/mL BSA, 10 μg/mL poly (A), 0.75 μM biotin-11-Dutp, 1.5 μM dTTP and HIV-1 RT. After incubation at 37 °C for 1h, washing buffer, which contained 50 mmol/L Tris-HCl (pH 7.5), 0.15 mol/L NaCl, 0.05 mmol/L MgCl2 and 0.02% Tween20, was used to wash the plate. Then each well of the plate was added […] 1% BSA and incubated at room temperature for another 30 min. The plate was washed with the same buffer for 3 times. Before further incubation at 37 °C for 1 h, 50 μL of alkaline phosphatase streptavidin (SA-ALP) solution (100 ng/mL) was added to each well and washed again as above. Finally, 50 μL of p-nitrophenyl phosphate, disodium (PNPP, 1 mg/mL, pH 9.5) was added and incubated at 37 °C for 30 min. 0.5 mol/L NaOH was added to stop the reaction and a colorimetric streptavidin-alkaline phosphatase reporter system was used to detect and quantify the result.

Structure (SMILES) | melting point | IC50 (HIV-1 RT) | fold more active compared to nevirapine (HIV-1 RT IC50) (HIV-1 RT)
O=c1cc(Cc2ccccc2)nc(SCCCOc2ccccc2)[nH]1 [7s, 2-(Phenoxypropylthio)-6-benzyluracil] | 89 to 91 °C | 16.7 µM | –
O=c1cc(Cc2ccccc2)nc(SCOCc2ccccc2)[nH]1 [7v, 2-(Benzyloxymethylthio)-6-benzyluracil] | 118 to 120 °C | 12.9 µM | –
CC(C)c1c(Cc2ccccc2)n(COCc2ccccc2)c(=O)[nH]c1=O [TNK-651, reference compound] | – | 0.14 µM | –
N#Cc1ccc(CSc2nc(Cc3ccccc3)c(I)c(=O)[nH]2)cc1 [8d, 2-(4-Cyanobenzylthio)-5-iodine-6-benzyluracil] | 223 to 226 °C | 10.6 µM | –
Cc1cc(C)cc(Cc2cc(=O)[nH]c(SCOCc3ccccc3)n2)c1 [7w, 2-(Benzyloxymethylthio)-6-(3,5-dimethylbenzyl)uracil] | 134 to 136 °C | 1.82 µM | –
O=c1cc(Cc2ccccc2)nc(SCc2ccc([N+](=O)[O-])cc2)[nH]1 [7a, 2-(4-Nitrobenzylthio)-6-benzyluracil] | 192 to 194 °C | > 100 µM | –
Cc1cc(C)cc(Cc2cc(=O)[nH]c(SCc3ccc(C#N)cc3)n2)c1 [7e, 2-(4-Cyanobenzylthio)-6-(3,5-dimethylbenzyl)uracil] | 193 to 196 °C | 29.6 µM | –
Cc1cc(C)cc(Cc2nc(SCc3ccc([N+](=O)[O-])cc3)[nH]c(=O)c2I)c1 [8b, 2-(4-Nitrobenzylthio)-5-iodine-6-(3,5-dimethylbenzyl)uracil] | 224 to 228 °C | 1.66 µM | –
O=c1[nH]c(SCCc2ccc([N+](=O)[O-])cc2)nc(Cc2ccccc2)c1I [8m, 2-(4-Nitrophenethylthio)-5-iodine-6-benzyluracil] | 209 to 212 °C | 8.64 µM | –
O=c1[nH]c(SCc2ccc([N+](=O)[O-])cc2)nc(Cc2ccccc2)c1I [8a, 2-(4-Nitrobenzylthio)-5-iodine-6-benzyluracil] | 207 to 210 °C | 9.2 µM | –
Cc1cc(C)cc(Cc2nc(SCc3ccc(C#N)cc3)[nH]c(=O)c2I)c1 [8e, 2-(4-Cyanobenzylthio)-5-iodine-6-(3,5-dimethylbenzyl)uracil] | 224 to 227 °C | 4.03 µM | –
COC(=O)c1ccc(CSc2nc(Cc3cc(F)cc(F)c3)c(I)c(=O)[nH]2)cc1 [8l, 2-(4-Methoxycarbonylbenzylthio)-5-iodine-6-(3,5-difluorobenzyl)uracil] | 210 to 213 °C | 0.71 µM | about 10 fold
O=c1[nH]c(SCCc2ccc([N+](=O)[O-])cc2)nc(Cc2cc(F)cc(F)c2)c1I [8o, 2-(4-Nitrophenethylthio)-5-iodine-6-(3,5-difluorobenzyl)uracil] | 220 to 221 °C | 6.88 µM | –
O=c1cc(Cc2cc(F)cc(F)c2)nc(SCCc2ccc([N+](=O)[O-])cc2)[nH]1 [7o, 2-(4-Nitrophenethylthio)-6-(3,5-difluorobenzyl)uracil] | 220 to 222 °C | 18.1 µM | –
O=c1[nH]c(SCc2ccc([N+](=O)[O-])cc2)nc(Cc2cc(F)cc(F)c2)c1I [8c, 2-(4-Nitrobenzylthio)-5-iodine-6-(3,5-difluorobenzyl)uracil] | 203 to 206 °C | 5.5 µM | –
O=c1cc(Cc2ccccc2)nc(SCCOc2ccc([N+](=O)[O-])cc2)[nH]1 [7p, 2-(2-(4-Nitrophenoxy)ethylthio)-6-benzyluracil] | 212 to 213 °C | 4.58 µM | –
O=c1cc(Cc2ccccc2)nc(SCCc2ccc([N+](=O)[O-])cc2)[nH]1 [7m, 2-(4-Nitrophenethylthio)-6-benzyluracil] | 200 to 204 °C | 67.2 µM | –
N#Cc1ccc(CSc2nc(Cc3cc(F)cc(F)c3)c(I)c(=O)[nH]2)cc1 [8f, 2-(4-Cyanobenzylthio)-5-iodine-6-(3,5-difluorobenzyl)uracil] | 216 to 219 °C | 4.49 µM | –
CC(=O)c1ccc(CSc2nc(Cc3cc(F)cc(F)c3)cc(=O)[nH]2)cc1 [7i, 2-(4-Acetylbenzylthio)-6-(3,5-difluorobenzyl)uracil] | 251 to 254 °C | 33.9 µM | –
CC(=O)c1ccc(CSc2nc(Cc3ccccc3)cc(=O)[nH]2)cc1 [7g, 2-(4-Acetylbenzylthio)-6-benzyluracil] | 204 to 205 °C | 55 µM | –
Cc1cc(C)cc(Cc2cc(=O)[nH]c(SCCCOc3ccccc3)n2)c1 [7t, 2-(Phenoxypropylthio)-6-(3,5-dimethylbenzyl)uracil] | 100 to 102 °C | 2.64 µM | –

Structure (SMILES) | melting point | IC50 (HIV-1 RT) | fold more active compared to nevirapine (HIV-1 RT IC50) (HIV-1 RT)
CC(=O)c1ccc(CSc2nc(Cc3ccccc3)c(I)c(=O)[nH]2)cc1 [8g, 2-(4-Acetylbenzylthio)-5-iodine-6-benzyluracil] | 219 to 220 °C | 13.8 µM | –
Cc1cc(C)cc(Cc2nc(SCCCOc3ccccc3)[nH]c(=O)c2I)c1 [8t, 2-(Phenoxypropylthio)-5-iodine-6-(3,5-dimethylbenzyl)uracil] | 165 to 167 °C | 12.9 µM | –
N#Cc1ccc(CSc2nc(Cc3cc(F)cc(F)c3)cc(=O)[nH]2)cc1 [7f, 2-(4-Cyanobenzylthio)-6-(3,5-difluorobenzyl)uracil] | 205 to 208 °C | 15.8 µM | –
O=c1[nH]c(SCCCOc2ccccc2)nc(Cc2cc(F)cc(F)c2)c1I [8u, 2-(Phenoxypropylthio)-5-iodine-6-(3,5-difluorobenzyl)uracil] | 156 to 158 °C | 18 µM | –
Cc1cc(C)cc(Cc2cc(=O)[nH]c(SCc3ccc([N+](=O)[O-])cc3)n2)c1 [7b, 2-(4-Nitrobenzylthio)-6-(3,5-dimethylbenzyl)uracil] | 218 to 220 °C | 3.32 µM | –
COC(=O)c1ccc(CSc2nc(Cc3cc(C)cc(C)c3)cc(=O)[nH]2)cc1 [7k, 2-(4-Methoxycarbonylbenzylthio)-6-(3,5-dimethylbenzyl)uracil] | 221 to 224 °C | 7.5 µM | –
CC(=O)c1ccc(CSc2nc(Cc3cc(F)cc(F)c3)c(I)c(=O)[nH]2)cc1 [8i, 2-(4-Acetylbenzylthio)-5-iodine-6-(3,5-difluorobenzyl)uracil] | 205 to 206 °C | 4.03 µM | –
O=c1[nH]c(SCOCc2ccccc2)nc(Cc2ccccc2)c1I [8v, 2-(Benzyloxymethylthio)-5-iodine-6-benzyluracil] | 133 to 135 °C | 10.2 µM | –
O=c1cc(Cc2cc(F)cc(F)c2)nc(SCCCOc2ccccc2)[nH]1 [7u, 2-(Phenoxypropylthio)-6-(3,5-difluorobenzyl)uracil] | 100 to 101 °C | 14.4 µM | –
N#Cc1ccc(CSc2nc(Cc3ccccc3)cc(=O)[nH]2)cc1 [7d, 2-(4-Cyanobenzylthio)-6-benzyluracil] | 190 to 193 °C | > 100 µM | –
O=c1[nH]c(SCCOc2ccc([N+](=O)[O-])cc2)nc(Cc2ccccc2)c1I [8p] | 204 to 205 °C | 6.28 µM | –
COC(=O)c1ccc(CSc2nc(Cc3cc(F)cc(F)c3)cc(=O)[nH]2)cc1 [7l, 2-(4-Methoxycarbonylbenzylthio)-6-(3,5-difluorobenzyl)uracil] | 279 to 280 °C | > 100 µM | –
COC(=O)c1ccc(CSc2nc(Cc3ccccc3)cc(=O)[nH]2)cc1 [7j, 2-(4-Methoxycarbonylbenzylthio)-6-benzyluracil] | 214 to 217 °C | > 100 µM | –
O=c1cc(Cc2cc(F)cc(F)c2)nc(SCc2ccc([N+](=O)[O-])cc2)[nH]1 [7c, 2-(4-Nitrobenzylthio)-6-(3,5-difluorobenzyl)uracil] | – | > 100 µM | –
CC(=O)c1ccc(CSc2nc(Cc3cc(C)cc(C)c3)cc(=O)[nH]2)cc1 [7h, 2-(4-Acetylbenzylthio)-6-(3,5-dimethylbenzyl)uracil] | 195 to 197 °C | 17 µM | –
O=c1[nH]c(SCCCOc2ccccc2)nc(Cc2ccccc2)c1I [8s, 2-(Phenoxypropylthio)-5-iodine-6-benzyluracil] | 135 to 137 °C | 5.88 µM | –
O=c1cc(Cc2cc(F)cc(F)c2)nc(SCCOc2ccc([N+](=O)[O-])cc2)[nH]1 [7r, 2-(2-(4-Nitrophenoxy)ethylthio)-6-(3,5-difluorobenzyl)uracil] | 210 to 212 °C | 1.31 µM | –
COC(=O)c1ccc(CSc2nc(Cc3ccccc3)c(I)c(=O)[nH]2)cc1 [8j, 2-(4-Methoxycarbonylbenzylthio)-5-iodine-6-benzyluracil] | 214 to 216 °C | 3.64 µM | –
COC(=O)c1ccc(CSc2nc(Cc3cc(C)cc(C)c3)c(I)c(=O)[nH]2)cc1 [8k, 2-(4-Methoxycarbonylbenzylthio)-5-iodine-6-(3,5-dimethylbenzyl)uracil] | 208 to 211 °C | 1.11 µM | –
Cc1cc(C)cc(Cc2nc(SCOCc3ccccc3)[nH]c(=O)c2I)c1 [8w, 2-(Benzyloxymethylthio)-5-iodine-6-(3,5-dimethylbenzyl)uracil] | 200 to 202 °C | 8.75 µM | –
